{"source": "patent US20220273678A1", "about": "(priority 2020, published 2022)", "key": {"SARS-CoV-2 Beta variant [1]": {"system": "SARS-CoV-2 Beta variant", "assay_type": "cell-based", "conditions": "for antiviral activity against Beta variant, viral titer assay: hACE2 HEK293T, 1000 nM dTPP, CoQ10 1000-2000 nM"}, "SARS-CoV-2 Delta variant [2]": {"system": "SARS-CoV-2 Delta variant", "assay_type": "cell-based", "conditions": "1000 nM Mito-MES; 1000 nM dTPP; CoQ10 1000-2000 nM"}, "SARS-CoV-2 Delta variant [3]": {"system": "SARS-CoV-2 Delta variant", "parameters": "species or system mice", "conditions": "mouse, in vivo"}, "SARS-CoV-2 Beta": {"system": "SARS-CoV-2 Beta", "assay": "microbe, parasite or virus in culture", "assay_type": "cell-based", "conditions": "Severe acute respiratory syndrome coronavirus 2, Calu-3"}, "SARS-CoV-2 Delta variant [4]": {"system": "SARS-CoV-2 Delta variant", "assay": "microbe, parasite or virus in culture", "assay_type": "cell-based", "conditions": "Severe acute respiratory syndrome coronavirus 2, Calu-3"}, "SARS-CoV-2 Beta variant [5]": {"system": "SARS-CoV-2 Beta variant", "parameters": "species or system mice", "conditions": "mouse, in vivo"}}}
{"smiles": "COC1=C(OC)C(=O)C(C/C=C(\\C)CC/C=C(\\C)CC/C=C(\\C)CC/C=C(\\C)CC/C=C(\\C)CC/C=C(\\C)CC/C=C(\\C)CC/C=C(\\C)CC/C=C(\\C)CCC=C(C)C)=C(C)C1=O", "note": "[CoQ10, Coenzyme Q10]", "values": [{"measurement": "antiviral activity against Beta variant, viral titer assay", "setting": "SARS-CoV-2 Beta variant [1]", "value": "only higher concentrations (1000-2000 nM)"}, {"measurement": "antiviral activity against Delta variant in ALI lung cultures", "setting": "SARS-CoV-2 Delta variant [2]", "value": "only higher concentrations (1000-2000 nM)"}]}
{"smiles": "COC1=C(OC)C(=O)C(CCCCCCCCCC[P+](c2ccccc2)(c2ccccc2)c2ccccc2)=C(C)C1=O.CS(=O)(=O)[O-]", "note": "[Mito-MES, 10-(4,5-dimethoxy-2-methyl-3,6-dioxo-1,4-cyclohexadienyl) decyl triphenylphosphonium methanesulfonate]", "values": [{"measurement": "SARS-CoV-2 N protein in lungs, ELISA", "setting": "SARS-CoV-2 Delta variant [3]", "value": "further confirmed by ELISA"}, {"measurement": "reduction of viral titer relative to vehicle", "setting": "SARS-CoV-2 Delta variant [3]; po, 20 mg/kg", "value": "~3", "unit": "log units"}, {"measurement": "time-of-addition study, intracellular N protein", "setting": "SARS-CoV-2 Beta variant [1]", "value": "also even when added 4 hours after infection"}, {"measurement": "antiviral activity against Delta variant in ALI lung cultures", "setting": "SARS-CoV-2 Delta variant [2]", "value": "inhibited SARS-CoV-2 Delta variants in ALI lung cultures"}, {"measurement": "IC50", "setting": "SARS-CoV-2 Beta", "value": 34, "unit": "nM"}, {"measurement": "IC50", "setting": "SARS-CoV-2 Delta variant [4]", "value": 41, "unit": "nM"}, {"measurement": "IL-lb, IL-6, TNFa in the lung", "setting": "SARS-CoV-2 Beta variant [5]", "value": "reduction in IL-lb, IL-6, TNFa"}, {"measurement": "cleaved caspase 3 in lung, immunofluorescence", "setting": "SARS-CoV-2 Beta variant [5]", "value": "inhibited SARS-CoV-2-associated increase in cleaved caspase 3"}, {"measurement": "frequency of NK cells in lungs", "setting": "SARS-CoV-2 Beta variant [5]", "value": "reduced frequency of NK cells"}, {"measurement": "histopathology: lung inflammation and tissue damage", "setting": "SARS-CoV-2 Beta variant [5]", "value": "reduction of lung inflammation and tissue damage"}]}
{"smiles": "CCCCCCCCCC[P+](c1ccccc1)(c1ccccc1)c1ccccc1.[Br-]", "note": "[dTPP]", "values": [{"measurement": "time-of-addition study, intracellular N protein", "setting": "SARS-CoV-2 Beta variant [1]", "value": "reduced SARS-CoV-2 entry and had less impact on SARS-CoV-2 cytoplasmic replication"}, {"measurement": "antiviral activity against Beta variant, viral titer assay", "setting": "SARS-CoV-2 Beta variant [1]", "value": "potent antiviral activity"}, {"measurement": "antiviral activity against Delta variant in ALI lung cultures", "setting": "SARS-CoV-2 Delta variant [2]", "value": "potent antiviral activity"}]}
